In ChEMBL document CHEMBL1201862, “PubChem BioAssay data set” (2004):
Several values for one entry are separate records, joined by “and”; a condition that tells them apart may be missing. Equal entries are not always repeated.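 Compound exposure: 48 hours, 5 concentrations, 96-well plates. GI50 marks 50% less growth.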 Activity calls are given as the source filed them. Rule as the data show it: active = GI50 up to about 1.1 µM and inactive = higher.

Tests used:
Assay in all cases: NCI-60 cell line screen, 48 h
A498 = test system: A498
BT-549 = test system: BT-549
CCRF-CEM = test system: CCRF-CEM
HCT-116 = test system: HCT-116
HL-60 = test system: HL-60
LOX IMVI = test system: LOX IMVI
M14 = test system: M14
MDA-MB-435 = test system: MDA-MB-435
MOLT-4 = test system: MOLT-4
NCI-H23 = test system: NCI-H23
NCI-H460 = test system: NCI-H460
NCI-H522 = test system: NCI-H522
OVCAR-4 = test system: OVCAR-4
RXF 393 = test system: RXF 393
SF-268 = test system: SF-268
SF-539 = test system: SF-539
SNB-75 = test system: SNB-75
TK-10 = test system: TK-10
ACHN = test system: ACHN
OVCAR-5 = test system: OVCAR-5

Compound | GI50 (A498) | GI50 (BT-549) | GI50 (CCRF-CEM) | GI50 (HCT-116) | GI50 (HL-60) | GI50 (LOX IMVI) | GI50 (M14) | GI50 (MDA-MB-435) | GI50 (MOLT-4) | GI50 (NCI-H23) | GI50 (NCI-H460) | GI50 (NCI-H522) | GI50 (OVCAR-4) | GI50 (RXF 393) | GI50 (SF-268) | GI50 (SF-539) | GI50 (SNB-75) | GI50 (TK-10) | GI50 (ACHN) | GI50 (OVCAR-5)
COc1ccc(-c2cc(O)c3nc4ccccc4n3c2)cc1 | > 100 µM (inactive) | > 100 µM (inactive) | > 100 µM (inactive) | > 100 µM (inactive) | > 100 µM (inactive) | > 100 µM (inactive) | > 100 µM (inactive) | > 100 µM (inactive) | > 100 µM (inactive) | > 100 µM (inactive) | > 100 µM (inactive) | > 100 µM (inactive) | > 100 µM (inactive) | > 100 µM (inactive) | > 100 µM (inactive) | > 100 µM (inactive) | > 100 µM (inactive) | > 100 µM (inactive) |  | 
CC(C)=CCNc1ncnc2c1ncn2CCC(=O)OC(C)(C)C | > 100 µM (inactive) | 37.5 µM (inactive) | 22 µM (inactive) | > 100 µM (inactive) | > 100 µM (inactive) | > 100 µM (inactive) | > 100 µM (inactive) | > 100 µM (inactive) | 14.2 µM (inactive) | > 100 µM (inactive) | > 100 µM (inactive) | > 100 µM (inactive) | 4.81 µM (inactive) | 36.1 µM (inactive) | > 100 µM (inactive) | > 100 µM (inactive) | 13 µM (inactive) | > 100 µM (inactive) | > 100 µM (inactive) | > 100 µM (inactive)
CN(C)c1ccc(/C=c2\c3ccccc3n3c2cc(-c2ccccc2)[n+]3C)cc1 | 1.42 µM (inactive) | 0.0304 µM (active) | 0.0635 µM (active) | 0.0853 µM (active) | 0.0283 µM (active) | 0.118 µM (active) | 0.157 µM (active) | 0.0916 µM (active) | 0.0914 µM (active) | 0.0582 µM (active) | 0.103 µM (active) | 0.0193 µM (active) | 0.809 µM (active) | 0.547 µM (active) | 0.261 µM (active) | 0.0406 µM (active) | 0.061 µM (active) | 0.624 µM (active) | 0.368 µM (active) | 0.67 µM (active)
CC(O)(CNS(=O)(=O)c1ccccc1)c1ccccc1 (stereo unspecified) | > 100 µM (inactive) | > 100 µM (inactive) | > 100 µM (inactive) | > 100 µM (inactive) | > 100 µM (inactive) | > 100 µM (inactive) | > 100 µM (inactive) | > 100 µM (inactive) |  | > 100 µM (inactive) | > 100 µM (inactive) | > 100 µM (inactive) | > 100 µM (inactive) | > 100 µM (inactive) | > 100 µM (inactive) |  | > 100 µM (inactive) | > 100 µM (inactive) | > 100 µM (inactive) | > 100 µM (inactive)
NC(=O)CC(N)c1nnn[nH]1 (stereo unspecified) | > 100 µM (inactive) | > 100 µM (inactive) | > 100 µM (inactive) | > 100 µM (inactive) | > 100 µM (inactive) | > 100 µM (inactive) | > 100 µM (inactive) | > 100 µM (inactive) | > 100 µM (inactive) | > 100 µM (inactive) | > 100 µM (inactive) | > 100 µM (inactive) | > 100 µM (inactive) | > 100 µM (inactive) | > 100 µM (inactive) | > 100 µM (inactive) | > 100 µM (inactive) | > 100 µM (inactive) | > 100 µM (inactive) | > 100 µM (inactive)
CC(O[Si](C)(C)C(C)(C)C)[C@H](NC(=O)OCC(Cl)(Cl)Cl)C(=O)O (stereo partly specified) | > 100 µM (inactive) | > 100 µM (inactive) | > 100 µM (inactive) | > 100 µM (inactive) | > 100 µM (inactive) | > 10 µM (inactive) |  | > 100 µM (inactive) | > 100 µM (inactive) | 95.3 µM (inactive) | > 100 µM (inactive) | 78 µM (inactive) | > 100 µM (inactive) | > 100 µM (inactive) | > 100 µM (inactive) | > 100 µM (inactive) |  | > 100 µM (inactive) | 55.1 µM (inactive) | > 100 µM (inactive)
Cc1ccc2nc(-c3ccc(N)c(I)c3)sc2c1 | 20.4 µM (inactive) | 97.7 µM (inactive) | 6.21 µM (inactive) | 54.6 µM (inactive) | 12.9 µM (inactive) |  | 37.1 µM (inactive) | 19.2 µM (inactive) | 10.4 µM (inactive) |  | 18.2 µM (inactive) | 18 µM (inactive) | 2.09 µM (inactive) | 24 µM (inactive) | 23.2 µM (inactive) | 23.3 µM (inactive) | 41.5 µM (inactive) | 0.39 µM (active) | 20.8 µM (inactive) | 35.9 µM (inactive)
O=[N+]([O-])c1ccccc1CSc1nc(O)c2nc[nH]c2n1 | > 100 µM (inactive) | > 100 µM (inactive) |  | > 100 µM (inactive) | 78.2 µM (inactive) | > 100 µM (inactive) | 61.9 µM (inactive) | > 100 µM (inactive) and 55 µM (inactive) | > 100 µM (inactive) | > 100 µM (inactive) | > 100 µM (inactive) | > 100 µM (inactive) and 58.7 µM (inactive) |  | > 100 µM (inactive) | > 100 µM (inactive) | > 100 µM (inactive) |  | > 100 µM (inactive) and 79.8 µM (inactive) | > 100 µM (inactive) | > 100 µM (inactive) and 92 µM (inactive)
CC[C@H](C)C(=O)O[C@H]1CCC=C2C=C[C@H](C)[C@H](CC[C@@H]3C[C@@H](O)CC(=O)O3)[C@H]21 [MEVASTATIN] | 5.43 µM (inactive) | 4.75 µM (inactive) |  | 17.1 µM (inactive) | 46.6 µM (inactive) | 1.97 µM (inactive) | 10 µM (inactive) | 24.1 µM (inactive) | > 47.8 µM (inactive) | 20.1 µM (inactive) | 28 µM (inactive) | 2.85 µM (inactive) | 43.1 µM (inactive) | 14.3 µM (inactive) | 7.31 µM (inactive) | 7.35 µM (inactive) | 2.07 µM (inactive) | 36.6 µM (inactive) | 3.88 µM (inactive) | 31.6 µM (inactive)
Cc1ccc(C(=C2Sc3ccccc3S2)C(=C2Sc3ccccc3S2)c2ccc(C)s2)s1 | > 100 µM (inactive) | > 100 µM (inactive) | > 100 µM (inactive) | > 100 µM (inactive) | 13.6 µM (inactive) |  | 76.2 µM (inactive) | > 100 µM (inactive) | > 100 µM (inactive) | > 100 µM (inactive) |  | > 100 µM (inactive) | > 100 µM (inactive) | > 100 µM (inactive) | > 100 µM (inactive) |  | > 100 µM (inactive) | > 100 µM (inactive) | > 100 µM (inactive) | > 100 µM (inactive)
CN(CCNC(=O)c1cc(-c2ccccc2)nc2ccccc12)CCNC(=O)c1cc(-c2ccccc2)nc2ccccc12 | 12.2 µM (inactive) | > 100 µM (inactive) | 4.69 µM (inactive) | 8.05 µM (inactive) | 4.7 µM (inactive) | 3.89 µM (inactive) | 2.17 µM (inactive) | 6.92 µM (inactive) | 4.17 µM (inactive) | > 45.4 µM (inactive) | 8.87 µM (inactive) | 14.3 µM (inactive) |  | 8.67 µM (inactive) | 8.51 µM (inactive) | 7.71 µM (inactive) | 7.53 µM (inactive) | > 100 µM (inactive) | > 47 µM (inactive) | 8.55 µM (inactive)
Cc1ccc(Nc2nc(=O)[nH]c(=O)[nH]2)cc1N=[N+]=[N-] | > 100 µM (inactive) | > 100 µM (inactive) | > 100 µM (inactive) | > 100 µM (inactive) | > 100 µM (inactive) | > 100 µM (inactive) | > 100 µM (inactive) | > 100 µM (inactive) | > 100 µM (inactive) | > 100 µM (inactive) |  | > 100 µM (inactive) | > 100 µM (inactive) | > 100 µM (inactive) | > 100 µM (inactive) | > 100 µM (inactive) | > 100 µM (inactive) | > 100 µM (inactive) | > 100 µM (inactive) | > 100 µM (inactive)
O=S(=O)(O)CCCC1S(=O)(=O)OCCOS1(=O)=O | > 100 µM (inactive) | > 100 µM (inactive) |  | > 100 µM (inactive) | > 100 µM (inactive) | > 100 µM (inactive) | > 100 µM (inactive) | > 100 µM (inactive) |  | > 100 µM (inactive) | > 100 µM (inactive) | > 100 µM (inactive) | > 100 µM (inactive) | > 100 µM (inactive) | > 100 µM (inactive) | > 100 µM (inactive) | 0.745 µM (active) | > 100 µM (inactive) | > 100 µM (inactive) | > 100 µM (inactive)
CC1(C)Oc2ccc3c(=O)cc(-c4ccccc4)oc3c2C1C(=O)O (stereo unspecified) | > 100 µM (inactive) | > 100 µM (inactive) | > 100 µM (inactive) | > 100 µM (inactive) | > 100 µM (inactive) |  | > 100 µM (inactive) | > 100 µM (inactive) | > 100 µM (inactive) | > 100 µM (inactive) |  | > 100 µM (inactive) | > 100 µM (inactive) | > 100 µM (inactive) | > 100 µM (inactive) | > 100 µM (inactive) |  | > 100 µM (inactive) |  | > 100 µM (inactive)
COC(=O)[C@]12CC[C@H]3CN(C(=O)OCc4ccccc4)[C@H]([C@H]31)[C@H](c1ccco1)N2S(=O)(=O)c1ccc(C)cc1 | 27.4 µM (inactive) | 15.7 µM (inactive) | 11.4 µM (inactive) | 14.9 µM (inactive) | 16.3 µM (inactive) | 16.3 µM (inactive) | 17.5 µM (inactive) | 23.3 µM (inactive) | 21.8 µM (inactive) | 24.7 µM (inactive) | 26.5 µM (inactive) | 19.2 µM (inactive) | 28.5 µM (inactive) | 18.2 µM (inactive) | 24.2 µM (inactive) | 33.1 µM (inactive) |  | 33.2 µM (inactive) | 35.3 µM (inactive) | 38.5 µM (inactive)
